Results from US20130203805A1, “Methods for treating anemia using inhibitors of hypoxia-inducible factor (HIF) hydroxylase” (FIBROGEN, INC., priority 2001, published 2013).

Assays:
[1] = Hematocrit (Example 2, Experiment I); assay type: in vivo, Swiss Webster male mice; settings: mice; 200 mg/kg/day oral gavage 2.5 days; 4 h after final dose; relative to untreated controls; FIG. 2C
Method: Twelve Swiss Webster male mice (30-32 g) were obtained from Simonsen, Inc. (Gilroy Calif.), and treated by oral gavage two times per day for 2.5 days (5 doses) with a 4 ml/kg volume of either 0.5% carboxymethyl cellulose (CMC; Sigma-Aldrich, St. Louis Mo.) (0 mg/kg/day) or 2.5% Compound C (25 mg/ml in 0.5% CMC) (200 mg/kg/day). Four hours after the final dose, animals were anesthetized with isoflurane and two blood samples were collected from the abdominal vein. One blood sample was collected into a MICROTAINER serum separator tube (Becton-Dickinson, Franklin Lakes N.J.), and incubated at room temperature for 30 minutes, centrifuged at 8,000 rpm at 4° C. for 10 minutes. The serum fraction was then processed and analyzed for erythropoietin (EPO) expression using a QUANTIKINE immunoassay (R&D Systems) according to the manufacturer's instructions. The second blood sample was collected into a MICROTAINER EDTA-2K tube (Becton-Dickinson) for hematocrit analysis. Hematocrit was measured by drawing EDTA-blood into a 75 mm×1.1-12 mm I.D. capillary tube (Chase Scientific Glass, Inc., Rockwood Tenn.) to approximately ¾ length. One end of the tube was sealed with CRITOSEAL sealant (Sherwood Medical Company) and the tube was centrifuged in a J-503M MICROHEMATOCRIT centrifuge (Jorgensen Laboratories, Inc., Loveland Colo.) at 12,000 rpm for 5 minutes. Hematocrit was read against a reader card. […]

[2] = test system: erythropoietin transcript; assay: Erythropoietin transcript in tissues by Murine genome U74AV2 array (Example 7); assay type: in vivo, male Swiss Webster mice; settings: mice
Method: Twenty-five male Swiss Webster mice (35-38 g) were obtained from Simonson, Inc., and treated by oral gavage […] for 2.5 days (5 doses) with a 4 ml/kg volume of either 0.5% carboxymethyl cellulose (CMC; Sigma-Aldrich, St. Louis Mo.) (0 mg/kg/day), compound C at 30 or 100 mg/kg/day […], or blood was collected daily from animals as described above to induce anemia. Blood samples were collected and kidney, liver, brain, lung, heart, and skeletal muscle tissues were harvested and processed as for Example 2, Experiment I (supra).
RNA isolation was carried out using the following protocol. A 50 mg section of each organ was diced, 875 μl of RLT buffer (RNEASY kit; Qiagen Inc., Valencia Calif.) was added, and the pieces were homogenized for about 20 seconds using a rotor-stator POLYTRON homogenizer (Kinernatica, Inc., Cincinnati Ohio). The homogenate was micro-centrifuged for 3 minutes to pellet insoluble material, the supernatant was transferred to a new tube and RNA was isolated using an RNEASY kit (Qiagen) according to the manufacturer's instructions. The RNA was eluted into 80 μL of water and quantitated with RIBOGREEN reagent (Molecular Probes, Eugene Oreg.). Genomic DNA was then removed from the RNA using a DNA-FREE kit (Ambion Inc, Austin Tex.) according to the manufacturer's instructions. The absorbance at 260 and 280 nm was measured to determine RNA purity and concentration.
RNA was precipitated in 0.3 M sodium acetate (pH 5.2), 50 ng/ml glycogen, and 2.5 volumes of ethanol for one hour at −20° C. Samples were centrifuged and pellets were washed with cold 80% ethanol, dried, and resuspend in water. Double stranded cDNA was synthesized using a T7-(dT)24 first strand primer (Affymetrix, Inc., Santa. Clara Calif.) and the […] CHOICE system (Invitrogen) according to the manufacturer's instructions. The final cDNA was extracted with an equal volume of 25:24:1 phenol:chloroform:isoamyl alcohol using a PHASE LOCK GEL insert (Brinkman, Inc., Westbury N.Y.). The aqueous phase was collected and cDNA was precipitated using 0.5 volumes of 7.5 M ammonium acetate and 2.5 volumes of ethanol. Alternatively, cDNA was purified using the […] sample cleanup module (Affymetrix) according to the manufacturer's instructions. […]
Hybridization cocktail was prepared by bringing 5 μg probe to 100 μl in 1× hybridization buffer (100 mM MES, 1 M [Na^+], 20 mM EDTA, 0.01% Tween 20), 100 μg/ml herring sperm DNA, 500 μg/ml acetylated BSA, 0.03 nM control oligo B2 (Affymetrix), and 1× […] eukaryotic hybridization control (Affymetrix). […] Arrays were analyzed using a […] scanner (Affymetrix) and Microarray Suite software (Affymetrix). […]

[3] = 30 or 100 mg/kg/day oral gavage for 4 days, FIG. 6

O=C(O)CNC(=O)c1nc(Cl)c2ccccc2c1O [Compound C, [(1-chloro-4-hydroxy-isoquinoline-3-carbonyl)-amino]-acetic acid]
hematocrit [1]: significantly increased
erythropoietin transcript, brain [2, 3]: dose-dependent increase
erythropoietin transcript, kidney [2, 3]: dose-dependent increase
erythropoietin transcript, liver [2, 3]: dose-dependent increase
level of expression versus transcription seen with bleed-induced anemia in the same tissue ([2]; brain, kidney, liver, 30 or 100 mg/kg/day oral gavage): equivalent to or exceeded
